Like-named read-outs stand apart in the source and are kept apart here.
How the values were obtained:
rgRSV224 virus = assay: Antiviral activity: inhibition of rgRSV224 (GFP-expressing RSV) replication in HeLa cells; assay type: cell-based, respiratory syncytial virus; details: human respiratory syncytial virus, HeLa, 72 h
In short: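 HeLa cells infected with GFP-expressing rgRSV224 at MOI 0.02 alongside 4-fold compound dilutions in duplicate (0.5% DMSO). Incubated 3 days at 37 °C; EC50 taken as 50% inhibition of GFP expression by laser microscopy. CC50 measured in parallel uninfected cells by ATP content after 3 days; SI = CC50/EC50.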

[1] = read-out: RSV-wt_pEC50, rgRSV224 (MOI=0.02) in HeLa cells, GFP expression three days post-virus exposure
[2] = read-out: pEC50, rgRSV224 (MOI=0.02) in HeLa cells, GFP expression three days post-virus exposure (converted)

| SMILES | EC50 (rgRSV224 virus; [1]) [nM] | melting point [°C] | EC50 (rgRSV224 virus; [2]) [nM] |
| --- | --- | --- | --- |
| CC(=O)NS(=O)(=O)N1CCC2(CC1)C(=O)N(Cc1cc3cc(Cl)ccc3n1CCCCF)c1cnccc12 [Compound 114, N-[(1′-{[5-Chloro-1-(4-fluorobutyl)-1H-indol-2-yl]methyl}-2′-oxo-1′,2′-dihydro-1H-spiro[piperidine-4,3′-pyrrolo[2,3-c]-pyridin]-1-yl)sulfonyl]acetamide] | 0.427 | 236.92 |  |
| CS(=O)(=O)CCCn1c(CN2C(=O)C3(CN(C(=O)C(F)(F)F)C3)c3ccccc32)nc2cc(Cl)ccc21 [Compound 31, 1-({5-chloro-1-[3-(methylsulfonyl)propyl]-1H-benzimidazol-2-yl}methyl)-1-(trifluoroacetyl)spiro-[azetidine-3,3′-indol]-2′(1′H)-one] |  | 249.58 | 3.16 |
| CC(=O)NS(=O)(=O)N1CCC2(CC1)C(=O)N(Cc1cc3cc(Cl)ccc3n1CCCC#N)c1cnccc12 [Compound 172, N-[(1′-{[5-Chloro-1-(3-cyanopropyl)-1H-indol-2-yl]methyl}-2′-oxo-1′,2′-dihydro-1H-spiro[piperidine-4,3′-pyrrolo[2,3-c]pyridin]-1-yl)sulfonyl]acetamide] | 0.0661 | 230.52 |  |
| CC(=O)N1CC2(C1)C(=O)N(Cc1cc3cc(Cl)ccc3n1CCCC#N)c1ccccc12 [Compound 62, 4-{2-[(1-acetyl-2′-oxospiro[azetidine-3,3′-indol]-1′(2′H)-yl)-methyl]-5-chloro-1H-indol-l-yl}butanenitrile] |  | 195.25 | 1 |
| CS(=O)(=O)CCCn1c(CN2C(=O)C3(CCN(S(=O)(=O)c4ccc(F)cc4)CC3)c3ccccc32)nc2cc(Cl)ccc21 [Compound 34, 1-({5-chloro-1-[3-(methylsulfonyl)propyl]-1H-benzimidazol-2-yl}methyl)-1′-[(4-fluorophenyl)-sulfonyl]spiro[indole-3,4′-piperidin]-2(1H)-one] |  | 183.97 | 1.26 |
| CS(=O)(=O)CCCn1c(CN2C(=O)C3(CCN(S(=O)(=O)c4cccs4)CC3)c3ccccc32)nc2cc(Cl)ccc21 [Compound 102] | 1.45 | 233.06 |  |
| COc1ccc(S(=O)(=O)N2CCC3(CC2)C(=O)N(Cc2nc4cc(Cl)ccc4n2CCCS(C)(=O)=O)c2ccccc23)cc1 [Compound 36, 1-({5-chloro-1-[3-(methylsulfonyl)propyl]-1H-benzimidazol-2-yl}methyl)-1′-[(4-methoxyphenyl)-sulfonyl]spiro[indole-3,4′-piperidin]-2(1H)-one] |  | 237.33 | 0.251 |
| CC(C)(O)C(=O)N1CC2(C1)C(=O)N(Cc1cc3cc(Cl)ccc3n1CCCCO)c1ccccc12 [Compound 166, 1′-{[5-Chloro-1-(4-hydroxybutyl)-1H-indol-2-yl]methyl}-1-(2-hydroxy-2-methylpropanoyl)spiro[azetidine-3,3′-indol]-2′(1′H)-one] | 0.537 | 157.11 |  |
| N#CCCCn1c(CN2C(=O)C3(CCN(C(=O)OCCO)CC3)c3ccncc32)cc2cc(Cl)ccc21 [Compound 147, 2-Hydroxyethyl 1′-{[5-chloro-1-(3-cyanopropyl)-1H-indol-2-yl]methyl}-2′-oxo-1′,2′-dihydro-1H-spiro[piperidine-4,3′-pyrrolo[2,3-c]pyridine]-1-carboxylate] | 0.055 | 144.55 |  |
